PubChem BioAssay (NCI)
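Assay format: 96-well plates, 48-hour exposure. TGI is the concentration that stops growth completely.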

Columns and labels:
Assay in all cases: NCI-60 cell line screen, 48 h
[1] = system: HCT-116 colon
[2] = system: UO-31 renal
[3] = system: K-562 leukemia
[4] = system: SW-620 colon
[5] = system: HS 578T breast
[6] = system: OVCAR-3 ovarian
[7] = system: DU-145 prostate
[8] = system: OVCAR-5 ovarian
[9] = system: RXF 393 renal
[10] = system: 786-0 renal
[11] = system: ACHN renal
[12] = system: LOX IMVI melanoma
[13] = system: SK-OV-3 ovarian
[14] = system: MDA-MB-231 breast
[15] = system: CAKI-1 renal
[16] = system: NCI-H522 lung
[17] = system: HL-60(TB) leukemia
[18] = system: UACC-62 melanoma
[19] = system: NCI-H226 lung
[20] = system: BT-549 breast
[21] = system: IGROV1 ovarian
[22] = system: MCF7 breast
[23] = system: KM12 colon
[24] = system: SNB-19 CNS
[25] = system: MDA-N
[26] = system: T-47D breast
[27] = system: SK-MEL-28 melanoma
[28] = system: MOLT-4 leukemia
[29] = system: M14 melanoma
[30] = system: A549 NSCLC
[31] = system: NCI-H460 lung
[32] = system: SF-268 CNS
[33] = system: SF-539 CNS
[34] = system: NCI-H23 lung
[35] = system: MDA-MB-435
[36] = system: OVCAR-8 ovarian
[37] = system: COLO 205 colon
[38] = system: SF-295 CNS
[39] = system: CCRF-CEM leukemia
[40] = system: U251 CNS
[41] = system: TK-10 renal
[42] = system: SK-MEL-5 melanoma
[43] = system: SK-MEL-2 melanoma
[44] = system: UACC-257 melanoma
[45] = system: OVCAR-4 ovarian
[46] = system: SN12C renal
[47] = system: EKVX NSCLC
[48] = system: HT29 colon
[49] = system: HCC-2998 colon
[50] = system: HCT-15 colon
[51] = system: HOP-62 NSCLC
[52] = system: PC-3 prostate
[53] = system: NCI/ADR-RES ovarian
[54] = system: A498 renal
[55] = system: HOP-92 NSCLC
[56] = system: RPMI-8226 leukemia
[57] = system: MALME-3M melanoma
[58] = system: SNB-75 CNS

Measured: TGI

CCOC(=O)N1c2ccccc2S(=O)(=O)c2ccccc21
not listed: [55] | [56] | [57] | [58]
> 100 µM: all other assays above

CC1=CC2(O)OC3(CC2=C(C)C)C(C)CCC13 (stereo not drawn)
not listed: [27] | [31] | [49] | [52]
> 100 µM: all other assays above
